Data from PubChem BioAssay AID2060627 (Molecular Pharmacology Branch, DTP, NCI, 2025).
pIC50: −log10 of the molar value. Several values for one entry are separate records, joined by “and”; a condition that tells them apart may be missing. Equal values may be shown once.

Test system: 156681-154-R-J1-PDC complex spheroid viability
Test: Anticancer human tumor 156681-154-R-J1-PDC patient-derived melanoma cell line growth inhibition [CLK]
Details: for viability, T/C: stronger effect = lower value
Outline: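 Multi-cell-type spheroids combined patient-derived tumor cells with HUVEC endothelial cells and human mesenchymal stem cells. Paired agents were dosed in half-log steps down from about clinical Cmax, or from 10 microM where Cmax was unknown.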

[1] = curve of first compound, second compound 0.0316 µM
[2] = curve of first compound, second compound 0.1 µM
[3] = curve of first compound, second compound 0.316 µM
[4] = curve of first compound, second compound 1 µM
[5] = curve of first compound, second compound 3.16 µM
[6] = curve of first compound, second compound 10 µM
[7] = second compound 0.0316 µM, first compound 0.0316 µM
[8] = second compound 0.0316 µM, first compound 0.1 µM
[9] = second compound 0.0316 µM, first compound 0.316 µM
[10] = second compound 0.0316 µM, first compound 1 µM
[11] = second compound 0.0316 µM, first compound 3.16 µM
[12] = second compound 0.0316 µM, first compound 10 µM
[13] = second compound 0.1 µM, first compound 0.0316 µM
[14] = second compound 0.1 µM, first compound 0.1 µM
[15] = second compound 0.1 µM, first compound 0.316 µM
[16] = second compound 0.1 µM, first compound 1 µM
[17] = second compound 0.1 µM, first compound 3.16 µM
[18] = second compound 0.1 µM, first compound 10 µM
[19] = second compound 0.316 µM, first compound 0.0316 µM
[20] = second compound 0.316 µM, first compound 0.1 µM
[21] = second compound 0.316 µM, first compound 0.316 µM
[22] = second compound 0.316 µM, first compound 1 µM
[23] = second compound 0.316 µM, first compound 3.16 µM
[24] = second compound 0.316 µM, first compound 10 µM
[25] = second compound 1 µM, first compound 0.0316 µM
[26] = second compound 1 µM, first compound 0.1 µM
[27] = second compound 1 µM, first compound 0.316 µM
[28] = second compound 1 µM, first compound 1 µM
[29] = second compound 1 µM, first compound 3.16 µM
[30] = second compound 1 µM, first compound 10 µM
[31] = second compound 3.16 µM, first compound 0.0316 µM
[32] = second compound 3.16 µM, first compound 0.1 µM
[33] = second compound 3.16 µM, first compound 0.316 µM
[34] = second compound 3.16 µM, first compound 1 µM
[35] = second compound 3.16 µM, first compound 3.16 µM
[36] = second compound 3.16 µM, first compound 10 µM
[37] = second compound 10 µM, first compound 0.0316 µM
[38] = second compound 10 µM, first compound 0.1 µM
[39] = second compound 10 µM, first compound 0.316 µM
[40] = second compound 10 µM, first compound 1 µM
[41] = second compound 10 µM, first compound 3.16 µM
[42] = second compound 10 µM, first compound 10 µM
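Note: spheroids exposed to the agents for seven days.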
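Throughout, for viability, T/C: 100% = DMSO vehicle control viability.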

O=C(c1cc(Cc2n[nH]c(=O)c3ccccc23)ccc1F)N1CCN(C(=O)C2CC2)CC1 + CN1CCN(c2cc(C(=O)Nc3cc4cc(-c5cnn(C)c5)ccc4cn3)ccn2)CC1
pIC50 [1]: < 5.00
pIC50 [2]: < 5.00
pIC50 [3]: > 7.50
pIC50 [4]: > 7.50
pIC50 [5]: > 7.50
pIC50 [6]: > 7.50
viability, T/C [7]: 104%
viability, T/C [8]: 110%
viability, T/C [9]: 89.1%
viability, T/C [10]: 76.5%
viability, T/C [11]: 75.3%
viability, T/C [12]: 64.6%
viability, T/C [13]: 87.9%
viability, T/C [14]: 74.5%
viability, T/C [15]: 70.3%
viability, T/C [16]: 74.4%
viability, T/C [17]: 76.4%
viability, T/C [18]: 55.7%
viability, T/C [19]: 19.1%
viability, T/C [20]: 19.4%
viability, T/C [21]: 20.1%
viability, T/C [22]: 18%
viability, T/C [23]: 17.7%
viability, T/C [24]: 21.2%
viability, T/C [25]: 0.14%
viability, T/C [26]: 1.63%
viability, T/C [27]: 0.21%
viability, T/C [28]: 0.5%
viability, T/C [29]: 0.68%
viability, T/C [30]: 1.61%
viability, T/C [31]: 0.08%
viability, T/C [32]: 1.74%
viability, T/C [33]: 1.83%
viability, T/C [34]: 0.06%
viability, T/C [35]: 0.24%
viability, T/C [36]: 0.71%
viability, T/C [37]: 0.1%
viability, T/C [38]: 2.76%
viability, T/C [39]: 1.36%
viability, T/C [40]: 2.17%
viability, T/C [41]: 1.6%
viability, T/C [42]: 0.56%

C#Cc1c(F)ccc2cc(O)cc(-c3ncc4c(N5CC6CCC(C5)N6)nc(OCC56CCCN5CC(F)C6)nc4c3F)c12 (stereo not drawn) + CNC(=O)c1ccc(Nc2nc(OC3CCCC3)c3c(-c4ccc5nc(C)oc5c4)c[nH]c3n2)c(OC)c1
pIC50 [1]: < 5.00
pIC50 [2]: < 5.00
pIC50 [3]: < 5.00
pIC50 [4]: 6.94
pIC50 [5]: > 7.50
pIC50 [6]: > 7.50
viability, T/C [7]: 86%
viability, T/C [8]: 94.4%
viability, T/C [9]: 104%
viability, T/C [10]: 109%
viability, T/C [11]: 113%
viability, T/C [12]: 101%
viability, T/C [13]: 53.5%
viability, T/C [14]: 73.8%
viability, T/C [15]: 60.3%
viability, T/C [16]: 70%
viability, T/C [17]: 73.6%
viability, T/C [18]: 62.9%
viability, T/C [19]: 62.4%
viability, T/C [20]: 48.6%
viability, T/C [21]: 66.4%
viability, T/C [22]: 65.9%
viability, T/C [23]: 67%
viability, T/C [24]: 65.2%
viability, T/C [25]: 43.2%
viability, T/C [26]: 53.5%
viability, T/C [27]: 47.9%
viability, T/C [28]: 56%
viability, T/C [29]: 63.6%
viability, T/C [30]: 31.6%
viability, T/C [31]: 54.5%
viability, T/C [32]: 49.8%
viability, T/C [33]: 39.2%
viability, T/C [34]: 49.8%
viability, T/C [35]: 50.4%
viability, T/C [36]: 20.2%
viability, T/C [37]: 45.7%
viability, T/C [38]: 38.5%
viability, T/C [39]: 36.7%
viability, T/C [40]: 50%
viability, T/C [41]: 43%
viability, T/C [42]: 13.2%

CC1COCCN1c1cc(C2(S(C)(=N)=O)CC2)nc(-c2ccnc3[nH]ccc23)n1 (stereo not drawn) + CN1CCN(c2cc(C(=O)Nc3cc4cc(-c5cnn(C)c5)ccc4cn3)ccn2)CC1
pIC50 [1]: 5.92
pIC50 [2]: 5.95
pIC50 [3]: > 7.50
pIC50 [4]: > 7.50
pIC50 [5]: > 7.50
pIC50 [6]: > 7.50
viability, T/C [7]: 94.5%
viability, T/C [8]: 98.7%
viability, T/C [9]: 85%
viability, T/C [10]: 54%
viability, T/C [11]: 25.6%
viability, T/C [12]: 13%
viability, T/C [13]: 88.2%
viability, T/C [14]: 91.1%
viability, T/C [15]: 78.2%
viability, T/C [16]: 53.1%
viability, T/C [17]: 22.6%
viability, T/C [18]: 11.9%
viability, T/C [19]: 22.2%
viability, T/C [20]: 20.3%
viability, T/C [21]: 19.3%
viability, T/C [22]: 18.1%
viability, T/C [23]: 9.6%
viability, T/C [24]: 5.87%
viability, T/C [25]: 0.2%
viability, T/C [26]: 1.01%
viability, T/C [27]: 0.26%
viability, T/C [28]: 1.47%
viability, T/C [29]: 0.89%
viability, T/C [30]: 0.75%
viability, T/C [31]: 0.13%
viability, T/C [32]: 0.38%
viability, T/C [33]: 0.22%
viability, T/C [34]: 0.27%
viability, T/C [35]: 2.37%
viability, T/C [36]: 1.99%
viability, T/C [37]: 0.16%
viability, T/C [38]: 1.25%
viability, T/C [39]: 0.69%
viability, T/C [40]: 1.26%
viability, T/C [41]: 1.36%
viability, T/C [42]: 1.82%

CCc1c2c(nc3ccc(O)cc13)-c1cc3c(c(=O)n1C2)COC(=O)[C@]3(O)CC
viability, T/C (compound 0.00316 µM): 38.3% and 25.9%
viability, T/C (compound 0.01 µM): 16.9% and 13.7%
viability, T/C (compound 0.0316 µM): 15.6% and 16.5%
viability, T/C (compound 0.1 µM): 21.3% and 17.4%
viability, T/C (compound 0.316 µM): 16.8% and 17.7%
viability, T/C (compound 1 µM): 4.59% and 4.21%
pIC50 (curve of compound): > 8.50
